Data as given in patent US7109246B1, “Pharmaceutical compositions comprising an amphoteric surfactant an alkoxylated cetyl alcohol and a polar drug” (Hewlett Healthcare Ltd, priority 1998, dated 2006).
Where two headings read alike, the source gives them in different places.

How the values were obtained:
[1] = cited from earlier work
[2] = cited from earlier work; remark: listed apart in the source
[3] = radioimmunoassay after applying an aqueous solution to skin; cited from earlier work
[4] = system: antigen induced wheal and flare reaction in the skin; conditions: cited from earlier work
[5] = Bioavailability and pharmacokinetics of sodium cromoglycate from the literature; assay type: in vivo, human; conditions: oral, maximum administered dose of 2800 mg in a 70 kg person
Method: Urinary levels over time are probably a better measure of bioavailability.
Thus the maximum administered topical daily dose is expected to be 800 mg.

For `O=C([O-])c1cc(=O)c2c(OCC(O)COc3cccc4oc(C(=O)[O-])cc(=O)c34)cccc2o1.[Na+].[Na+]` [sodium cromoglycate, disodium 5,5′-[(2-hydroxytrimethylene)dioxy]bis-[4-oxo-4H-1-benzopyran-2-carboxylate]], the main adverse effects ([1]; clinical practice, generally transient) is listed as “headache, dizziness, local irritation of the target organ and an unpleasant taste in the mouth”, the adverse effects ([1]; eye drops) is listed as “burning and stinging” and the adverse effects ([1]; intra-nasal administration) is listed as “epistaxis”. For the same molecule, the adverse effects ([1]; oral administration) was “nausea, skin rash and joint pain”, the metabolism ([2]; in vivo) was “not metabolised” and the “removal from the blood” value ([2]; in vivo) was “rapidly removed”. The bioavailability ([2]; oral, food allergy) was 1%, the “sodium cromoglycate in the blood” value [3] was “unable to detect” and the “dependence of effect on pretreatment” value ([4]; 3 days pretreatment versus single dose immediately preceding skin prick testing) was “significant effect is observed only after pretreatment”. For the same molecule, the “effect on antigen induced wheal and flare reaction” value ([4]; topical, human subjects) was “inhibits” and the absorbed dose [5] was 28 mg.
